Reference: US20210068395A1, “METHODS OF APPLYING ONE OR MORE CERTAIN HETEROARYL-1,2,4-TRIAZOLE AND HETEROARYL-TETRAZOLE COMPOUNDS TO CONTROL DAMAGE ON PLANTS, PROPAGATION MATERIAL THEREOF, AND PLANT DERIVED PRODUCTS” (SYNGENTA CROP PROTECTION AG, priority 2018, published 2021)
Read-outs that look alike come from different tables or passages of the source.

Key:
Assay type in all cases: in vivo
[1] = test system: Diabrotica balteata (corn root worm); assay: Diabrotica balteata (corn root worm), sprayed maize sprouts; conditions: 96 h, read-out: control in at least one of the two categories (mortality or growth inhibition)
Procedure: Maize sprouts placed onto an agar layer in 24-well microtiter plates were treated with aqueous test solutions prepared from 10,000 ppm DMSO stock solutions by spraying. After drying, the plates were infested with L2 larvae (6 to 8 per well). The samples were assessed for mortality and growth inhibition in comparison to untreated samples 4 days after infestation.

[2] = test system: Euschistus heros (Neotropical Brown Stink Bug); assay: Euschistus heros feeding/contact activity; conditions: 120 h, read-out: control in at least one of the two categories (mortality or growth inhibition)
Procedure: Soybean leaves on agar in 24-well microtiter plates were sprayed with aqueous test solutions prepared from 10,000 ppm DMSO stock solutions. After drying the leaves were infested with N2 nymphs. The samples were assessed for mortality and growth inhibition 5 days after infestation.

[3] = test system: Myzus persicae (Green Peach Aphid); assay: Myzus persicae feeding activity (sucrose solution, Parafilm); conditions: 120 h, test rate 12.5 ppm, in sucrose solution, 5 days after infestation
Procedure: Test compounds prepared from 10,000 ppm DMSO stock solutions were applied by pipette into 24-well microtiter plates and mixed with sucrose solution. The plates were closed with a stretched Parafilm. A plastic stencil with 24 holes was placed onto the plate and infested pea seedlings were placed directly on the Parafilm. The infested plate was closed with a gel blotting paper and another plastic stencil and then turned upside down. The samples were assessed for mortality 5 days after infestation.

[4] = test system: Plutella xylostella (Diamond Back Moth); assay: Plutella xylostella feeding/contact activity, 96-well artificial diet; conditions: 216 h, application rate 500 ppm, 9 days after infestation
Procedure: 1, 2, 3, 4, 17, 19, 23, 26, 39, 41, 42, 54, 55, 56 Plutella xylostella (Diamond Back Moth):Feeding/Contact Activity 96-well microtiter plates containing artificial diet were treated with aqueous test solutions, prepared from 10,000 ppm DMSO stock solutions, by a liquid handling robot. After drying, eggs (˜30 per well) were infested onto a netted lid which was suspended above the diet. The eggs hatch and L1 larvae move down to the diet. The samples were assessed for mortality 9 days after infestation.

[5] = test system: Plutella xylostella (Diamond Back Moth); assay: Plutella xylostella feeding/contact activity, 24-well artificial diet; conditions: 192 h, read-out: control in at least one of the two categories (mortality or growth inhibition)
Procedure: 24-well microtiter plates with artificial diet were treated with aqueous test solutions prepared from 10,000 ppm DMSO stock solutions by pipetting. After drying, Plutella eggs were pipetted through a plastic stencil onto a gel blotting paper and the plate was closed with it. The samples were assessed for mortality and growth inhibition in comparison to untreated samples 8 days after infestation.

[6] = test system: Spodoptera littoralis (Egyptian Cotton Leaf Worm); assay: Spodoptera littoralis feeding/contact activity; conditions: foliar, 72 h, read-out: control in at least one of the three categories (mortality or growth inhibition or anti-feeding)
Procedure: Cotton leaf discs were placed onto agar in 24-well microtiter plates and sprayed with aqueous test solutions prepared from 10,000 ppm DMSO stock solutions. After drying the leaf discs were infested with five L1 larvae. The samples were assessed for mortality, anti-feeding and growth inhibition 3 days after infestation.

[7] = test system: Myzus persicae (Green Peach Aphid); assay: Myzus persicae feeding/contact activity; conditions: foliar, 144 h, application rate 200 ppm, sunflower leaf discs sprayed, 6 days after infestation
Procedure: (§1) Sunflower leaf discs were placed onto agar in a 24-well microtiter plate and sprayed with aqueous test solutions prepared from 10,000 ppm DMSO stock solutions. After drying, the leaf discs were infested with an aphid population of mixed ages. The samples were assessed for mortality 6 days after infestation.

[8] = test system: Myzus persicae (Green Peach Aphid); assay: Myzus persicae systemic activity; conditions: 144 h, test rate 24 ppm, roots of pea seedlings in test solution, 6 days
Procedure: Roots of pea seedlings infested with an aphid population of mixed ages were placed directly into aqueous test solutions prepared from 10,000 DMSO stock solutions. The samples were assessed for mortality 6 days after placing seedlings into test solutions.

[9] = test system: Spodoptera littoralis (Egyptian Cotton Leaf Worm); assay: Spodoptera littoralis systemic activity (lettuce); conditions: 144 h, test rate 12.5 ppm, root uptake in lettuce, 6 days after infestation, read-out: control in at least one of the three categories (mortality or growth inhibition or anti-feeding)
From the text: Test compounds were applied by pipette prepared from 10,000 ppm DMSO stock solutions into 24-well plates and mixed with agar. Lettuce seeds were placed onto the agar and the multi well plate was closed by another plate which contained also agar. After 7 days the compound was absorbed by the roots and the lettuce grew into the lid plate. The lettuce leaves were then cut off into the lid plate. Spodoptera eggs were pipetted through a plastic stencil onto a humid gel blotting paper and the lid plate was closed with it. The samples were assessed for mortality, anti-feeding and growth inhibition 6 days after infestation.

[10] = test system: Thrips tabaci (Onion thrips); assay: Thrips tabaci feeding/contact activity; conditions: foliar, 144 h, read-out: control in at least one of the two categories (mortality or anti-feeding)
Procedure: as §1, with “on” for “onto”, “in” for “in a”, “plates” for “plate”, “drying” for “drying,”, “a thrips” for “an aphid”, “mortality, and anti-feeding” for “mortality”

[11] = application rate 200 ppm, L2 larvae, 4 days after infestation
[12] = application rate 200 ppm, N2 nymphs on soybean leaves, 5 days after infestation
[13] = application rate 200 ppm, 24-well artificial diet, 8 days after infestation
[14] = application rate 200 ppm, L1 larvae on cotton leaf discs, 3 days after infestation
[15] = application rate 200 ppm, sunflower leaf discs, 6 days after infestation

CC(c1ncnn1-c1ncccn1)N(CC1CC1)C(=O)c1cc(Br)cc(C(F)(F)F)c1 (stereo not shown) [Compound 19]
≥ 80%: percent control (mortality or growth inhibition) at 200 ppm [1, 11] | percent control (mortality or growth inhibition) at 200 ppm [2, 12] | mortality at 12.5 ppm [3] | mortality at 500 ppm [4] | percent control (mortality or growth inhibition) at 200 ppm [5, 13] | percent control (mortality, anti-feedant effect or growth inhibition) at 200 ppm [6, 14]

CC(c1ncnn1-c1ncccn1)N(CCF)C(=O)c1cc(C(F)(F)F)cc(C(F)(F)F)c1 (stereo not shown) [Compound 56]
≥ 80%: percent control (mortality or growth inhibition) at 200 ppm [1, 11] | percent control (mortality or growth inhibition) at 200 ppm [2, 12] | mortality at 200 ppm [7] | mortality at 24 ppm [8] | mortality at 12.5 ppm [3] | mortality at 500 ppm [4] | percent control (mortality or growth inhibition) at 200 ppm [5, 13] | percent control (mortality, anti-feedant effect or growth inhibition) at 200 ppm [6, 14] | percent control (mortality, anti-feedant effect or growth inhibition) at 12.5 ppm [9]

CC(c1ncnn1-c1ccccn1)N(CC1COC1)C(=O)c1cc(C(F)(F)F)cc(C(F)(F)F)c1 (stereo not shown) [Compound 62]
≥ 80%: percent control (mortality or growth inhibition) at 200 ppm [1, 11]

CC(c1ncnn1-c1ncccn1)N(CC1CC1)C(=O)c1cc(C#N)cc(C(F)(F)F)c1 (stereo not shown) [Compound 42]
≥ 80%: percent control (mortality or growth inhibition) at 200 ppm [1, 11] | percent control (mortality or growth inhibition) at 200 ppm [2, 12] | mortality at 24 ppm [8] | mortality at 12.5 ppm [3] | mortality at 500 ppm [4] | percent control (mortality or growth inhibition) at 200 ppm [5, 13] | percent control (mortality, anti-feedant effect or growth inhibition) at 200 ppm [6, 14] | percent control (mortality, anti-feedant effect or growth inhibition) at 200 ppm [10, 15]

CC(c1ncnn1-c1ncccn1)N(CC1CC1)C(=O)c1cccc(C#N)c1 (stereo not shown) [Compound 25]
≥ 80%: percent control (mortality or growth inhibition) at 200 ppm [1, 11]

COC(=O)c1nc(C(C)NC(=O)c2cc(C(F)(F)F)cc(C(F)(F)F)c2)n(-c2ncccn2)n1 (stereo not shown) [Compound 7]
≥ 80%: percent control (mortality or growth inhibition) at 200 ppm [1, 11] | mortality at 500 ppm [4] | percent control (mortality or growth inhibition) at 200 ppm [5, 13] | percent control (mortality, anti-feedant effect or growth inhibition) at 200 ppm [6, 14] | percent control (mortality, anti-feedant effect or growth inhibition) at 200 ppm [10, 15]

COc1cnc(-n2ncnc2C(C)N(CC2CC2)C(=O)c2cc(C(F)(F)F)cc(C(F)(F)F)c2)nc1 (stereo not shown) [Compound 24]
≥ 80%: percent control (mortality or growth inhibition) at 200 ppm [1, 11] | percent control (mortality or growth inhibition) at 200 ppm [5, 13]

CC(c1ncnn1-c1ncccn1)N(CCCF)C(=O)c1cc(C(F)(F)F)cc(C(F)(F)F)c1 (stereo not shown) [Compound 54]
≥ 80%: percent control (mortality or growth inhibition) at 200 ppm [1, 11] | mortality at 200 ppm [7] | mortality at 12.5 ppm [3] | percent control (mortality or growth inhibition) at 200 ppm [5, 13] | percent control (mortality, anti-feedant effect or growth inhibition) at 200 ppm [6, 14]

CC(c1ncnn1-c1ncccn1)N(CC1CC1)C(=O)c1cncc(C(F)(F)F)c1 (stereo not shown) [Compound 47]
≥ 80%: percent control (mortality or growth inhibition) at 200 ppm [1, 11] | percent control (mortality or growth inhibition) at 200 ppm [2, 12] | mortality at 500 ppm [4]

CC(c1ncnn1-c1ncccn1)N(CC1CC1)C(=O)c1cc(Cl)cc(C(F)(F)F)c1 (stereo not shown) [Compound 23]
≥ 80%: percent control (mortality or growth inhibition) at 200 ppm [1, 11] | mortality at 12.5 ppm [3] | mortality at 500 ppm [4] | percent control (mortality or growth inhibition) at 200 ppm [5, 13] | percent control (mortality, anti-feedant effect or growth inhibition) at 200 ppm [6, 14] | percent control (mortality, anti-feedant effect or growth inhibition) at 12.5 ppm [9]

CC(c1ncnn1-c1ncccn1)N(CCC(F)(F)F)C(=O)c1cc(C(F)(F)F)cc(C(F)(F)F)c1 (stereo not shown) [Compound 55]
≥ 80%: percent control (mortality or growth inhibition) at 200 ppm [1, 11] | percent control (mortality or growth inhibition) at 200 ppm [2, 12] | mortality at 200 ppm [7] | mortality at 12.5 ppm [3] | mortality at 500 ppm [4] | percent control (mortality or growth inhibition) at 200 ppm [5, 13] | percent control (mortality, anti-feedant effect or growth inhibition) at 200 ppm [6, 14] | percent control (mortality, anti-feedant effect or growth inhibition) at 12.5 ppm [9] | percent control (mortality, anti-feedant effect or growth inhibition) at 200 ppm [10, 15]

CC(c1ncnn1-c1ncccn1)N(C[Si](C)(C)C)C(=O)c1cc(C(F)(F)F)cc(C(F)(F)F)c1 (stereo not shown) [Compound 16]
≥ 80%: percent control (mortality or growth inhibition) at 200 ppm [1] | percent control (mortality or growth inhibition) at 200 ppm ([2]; in Glycine max) | percent control (mortality or growth inhibition) at 200 ppm [5] | percent control (mortality, anti-feedant effect or growth inhibition) at 200 ppm [6] | percent control (mortality, anti-feedant effect or growth inhibition) at 200 ppm [10]

CC(c1ncnn1-c1ncccn1)N(CC1CC1)C(=O)c1cc(C(F)(F)F)nc(C(F)(F)F)c1 (stereo not shown) [Compound 41]
≥ 80%: percent control (mortality or growth inhibition) at 200 ppm [1, 11] | percent control (mortality or growth inhibition) at 200 ppm [2, 12] | mortality at 12.5 ppm [3] | mortality at 500 ppm [4] | percent control (mortality or growth inhibition) at 200 ppm [5, 13] | percent control (mortality, anti-feedant effect or growth inhibition) at 200 ppm [6, 14] | percent control (mortality, anti-feedant effect or growth inhibition) at 200 ppm [10, 15]

C[C@@H](c1ncnn1-c1ncccn1)N(C)C(=O)c1cc(C(F)(F)F)cc(C(F)(F)F)c1 [Compound 6]
≥ 80%: percent control (mortality or growth inhibition) at 200 ppm [1, 11] | percent control (mortality or growth inhibition) at 200 ppm [5, 13] | percent control (mortality, anti-feedant effect or growth inhibition) at 200 ppm [6, 14]

CCOC(OCC)c1nc(C(C)NC(=O)c2cc(C(F)(F)F)cc(C(F)(F)F)c2)n(-c2ncccn2)n1 (stereo not shown) [Compound 8]
≥ 80%: percent control (mortality or growth inhibition) at 200 ppm [1, 11] | mortality at 500 ppm [4] | percent control (mortality or growth inhibition) at 200 ppm [5, 13]
